From PMC12040169 (PLOS Biology, 2025)

Experiment: in vitro
Settings: human, hela cells, % viability

CC(C)(O)C(=O)NCc1nc2c(s1)CC(c1ccccc1)CC2 (centres unmarked) [CBK304165]
viability at 28.5 h, 10 µM: 77.3%

O=C(Nc1nnc(C(F)(F)F)s1)c1ccc(F)c(Cl)c1 [CBK076831]
viability at 28.5 h, 10 µM: 92.2%

N#Cc1c(NC(=O)CCn2cnnn2)sc2c1CCC2 [CBK270041]
viability at 28.5 h, 10 µM: 93.5%

COCCOC(=O)C1=C(C)NC2=C(C(=O)CC(c3ccc(OC)cc3)C2)C1c1ccc(F)cc1 (centres unmarked) [CBK293921]
viability at 28.5 h, 10 µM: 88.9%

O=C(CN1CCOCC1)N1CCC(c2cccc(Cc3ccc(C(F)(F)F)cc3)n2)CC1 [CBK286508]
viability at 28.5 h, 10 µM: 101%

CC(C)c1cccc(C(C)C)c1OCCNCCO [CBK262750]
viability at 28.5 h, 10 µM: 89.3%

O=C(CCN1CCOCC1)Nc1cc(Cl)cc(Cl)c1 [CBK057021]
viability at 28.5 h, 10 µM: 119%

CC(C)NC(=O)Cn1c(=O)n(Cc2cccs2)c2ncccc21 [CBK283900]
viability at 28.5 h, 10 µM: 83.6%

O=C(O)c1ccc(OCCNS(=O)(=O)c2ccc3ccccc3c2)cc1 [CBK299807]
viability at 28.5 h, 10 µM: 83.5%

C=CCn1c(SCC(=O)Nc2cccc(C(F)(F)F)c2)nnc1C12CC3CC(CC(C3)C1)C2 [CBK266054]
viability at 28.5 h, 10 µM: 105%

CCCCc1ccc(C(N)=O)nc1C(N)=O [CBK005061]
viability at 28.5 h, 10 µM: 88.8%

CS(=O)(=O)N(CC(=O)O)Cc1ccccc1 [CBK265805]
viability at 28.5 h, 10 µM: 90.1%

Cc1cccc(-n2ncc3c(=O)n(CC(=O)NC4CCCCC4)cnc32)c1C [CBK287694]
viability at 28.5 h, 10 µM: 104%

O=C1Nc2ccc(/C=C/c3ccccc3)cc2C(=O)N2CC[C@H](NC(=O)N3CCOCC3)[C@@H]12 [CBK289344]
viability at 28.5 h, 10 µM: 98.1%

Cc1cc(N2CCOC(c3cccs3)C2)ccn1 (centres unmarked) [CBK304691]
viability at 28.5 h, 10 µM: 96.2%

O=C(NC1CCNCC1)c1cc2ccccc2[nH]1 [CBK168609]
viability at 28.5 h, 10 µM: 84.6%

CCCC1c2cccn2CCN1S(=O)(=O)c1ccc2[nH]c(=O)[nH]c(=O)c2c1 (centres unmarked) [CBK286388]
viability at 28.5 h, 10 µM: 101%

NS(=O)(=O)c1ccc(CCNCc2ccc3c(c2)OCO3)cc1 [CBK269819C]
viability at 28.5 h, 10 µM: 88.5%

O=C(Nc1ccc(-c2ccccc2)cc1)c1cccc(S(=O)(=O)NCC2CCCO2)c1 (centres unmarked) [CBK296994]
viability at 28.5 h, 10 µM: 95.7%

CC(=O)c1c(C)n(O)c2ccc(Cl)cc2c1=O [CBK217746]
viability at 28.5 h, 10 µM: 107%

Cc1ccc(-c2csc(=Nc3ccc(C(=O)O)cc3)n2Cc2ccccc2)cc1 [CBK296062]
viability at 28.5 h, 10 µM: 105%

CC(C)[C@@H](CO)NC(=O)c1cnc(-c2cccc(C(F)(F)F)c2)c(-c2cccnc2)c1 [CBK037520]
viability at 28.5 h, 10 µM: 112%

Cn1c(=O)[nH]c(=O)c2cnc(-c3ccc(Cl)cc3)nc21 [CBK291208]
viability at 28.5 h, 10 µM: 95.6%

NCCCNC(=O)c1cc2ccccc2[nH]1 [CBK267639]
viability at 28.5 h, 10 µM: 88.4%

O=C(NCCOc1cccc(Cl)c1Cl)c1ccccc1-c1ccccc1 [CBK267390]
viability at 28.5 h, 10 µM: 40.6%

COc1ccc(C(=O)NC(N2CCCCC2)C(Cl)(Cl)Cl)cc1 (centres unmarked) [CBK087021]
viability at 28.5 h, 10 µM: 89.1%

COc1ccc(-c2cc(C(F)(F)F)nc(SCC(=O)Nc3ccc4c(c3)OCO4)n2)cc1OC [CBK266169]
viability at 28.5 h, 10 µM: 101%

NC(=O)CCNC(=O)c1ccc2[nH]ccc2c1 [CBK149082]
viability at 28.5 h, 10 µM: 102%

Cc1nc(C(Cc2ccsc2)NC(=O)Cn2cccn2)sc1C (centres unmarked) [CBK284781]
viability at 28.5 h, 10 µM: 93.9%

O=C(c1ccccc1F)N1C2CCC1CC(O)(c1cccnc1F)C2 (centres unmarked) [CBK284420]
viability at 28.5 h, 10 µM: 98.4%

CCC1=NN(c2ccccc2)C(=O)C(CC(=O)Nc2ccccc2)c2cc(OC)c(OC)cc21 (centres unmarked) [CBK260938]
viability at 28.5 h, 10 µM: 89%

CCc1nc2ccc(C(=O)NCCN3CCOCC3)cn2c1N(C=O)Cc1ccc(OC)cc1 [CBK146625]
viability at 28.5 h, 10 µM: 97.9%

O=C(NCc1cccnc1)C(=O)Nc1ccc(F)cc1F [CBK269481]
viability at 28.5 h, 10 µM: 101%

CCSC(SCC)c1ccnn1-c1ccccc1 [CBK019332]
viability at 28.5 h, 10 µM: 87.1%

CCOc1ncccc1NC(=O)C(C)n1cccn1 (centres unmarked) [CBK245377]
viability at 28.5 h, 10 µM: 105%

Cc1cc(C)c2oc(-c3ccc(C)c(NC(=O)COc4ccccc4C)c3)nc2c1 [CBK263067]
viability at 28.5 h, 10 µM: 103%

Cc1cc(C(=O)O)ccc1-c1ccc(/C=C/c2[nH]c(=O)[nH]c(=O)c2[N+](=O)[O-])o1 [CBK266998]
viability at 28.5 h, 10 µM: 97.3%

CSCCN1CCN(c2nccnc2OCC2COc3ccccc3O2)CC1 (centres unmarked) [CBK082806T]
viability at 28.5 h, 10 µM: 85.2%

O=C(c1cn2cc(-c3cccs3)n(CC3CC3)c(=O)c2n1)N1CC(O)C1 [CBK306979]
viability at 28.5 h, 10 µM: 97.4%

Cc1ccnn1CCC(=O)N1CCC(c2cc3cccnc3[nH]2)CC1 [CBK284912]
viability at 28.5 h, 10 µM: 95.2%

COc1cc([N+](=O)[O-])ccc1-c1ccc(/C=c2\sc3nc4cc(Br)cnc4n3c2=O)o1 [CBK262579]
viability at 28.5 h, 10 µM: 103%

Cc1ccc(N2CCCN(C(=O)CCc3ccsc3)CC2)nn1 [CBK304573]
viability at 28.5 h, 10 µM: 91.1%

O=C(c1ccc2[nH]nnc2c1)N1CCc2ccccc21 [CBK200365]
viability at 28.5 h, 10 µM: 102%

O=C(CN1C(=O)CSc2ccccc21)Nc1ccccc1C(=O)N1CCOCC1 [CBK267343]
viability at 28.5 h, 10 µM: 104%
